The record followed here is ChEMBL document CHEMBL5500394, “Structure-Activity Studies of 1,2,4-Oxadiazoles for the Inhibition of the NAD+-Dependent Lysine Deacylase Sirtuin 2” (J Med Chem, 2024).

Assay [1] addresses T1, NAD-dependent protein deacetylase sirtuin-2 (Homo sapiens, UniProt Q8IXJ6).
T1 sequence (Q8IXJ6 whole entry): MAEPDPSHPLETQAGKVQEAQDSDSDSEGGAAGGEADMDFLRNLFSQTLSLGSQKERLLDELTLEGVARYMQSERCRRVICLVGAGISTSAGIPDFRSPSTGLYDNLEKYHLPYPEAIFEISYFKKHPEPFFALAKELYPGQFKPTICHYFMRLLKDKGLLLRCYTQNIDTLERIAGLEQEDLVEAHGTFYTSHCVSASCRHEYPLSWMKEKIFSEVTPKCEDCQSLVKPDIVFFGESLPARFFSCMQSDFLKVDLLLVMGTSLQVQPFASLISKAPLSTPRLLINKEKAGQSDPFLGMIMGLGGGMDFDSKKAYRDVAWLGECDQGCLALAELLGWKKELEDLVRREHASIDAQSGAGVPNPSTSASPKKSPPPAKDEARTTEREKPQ
As to the kind of experiment: Inhibition of human Sirt2 (56 to 356 residues) deacetylation expressed in Escherichia coli BL21 (DE3) using ZMAL as substrate incubated for 4 hrs in presence of NAD+ by fluorescence based microplate reader assay.

For assay [2], the target named is T1, NAD-dependent protein deacetylase sirtuin-2. Kind of assay: Inhibition of human Sirt2 (56 to 356 residues) demyristoylation expressed in Escherichia coli BL21 (DE3) using ZMML as substrate incubated for 4 hrs in presence of NAD+ by fluorescence based microplate reader assay.
In assay [3] the target is T2, NAD-dependent protein deacetylase sirtuin-2 (Homo sapiens) (UniProt Q8IXJ6).
T2 sequence (whole entry): T1 sequence (Q8IXJ6 whole entry)
The following applies: PC-3M-luc, dose 20.0 µM, time 6.0 hrs.

A further assay concerns PC-3M-luc. The settings on record: Homo sapiens, dose 10-20 µM, time 3.0 day.
The test system of the next assay is HeLa. As to the kind of experiment: Cytotoxicity against human HeLa cells at 1 to 25 uM incubated for 72 hrs by MTS assay. The settings on record: dose 1-25 µM. Format: functional, cell-based. For orientation: Tetrazolium assays rely on reduction of a dye to a coloured formazan, in cell work by metabolically active cells.
The target of assay [4] is T2, NAD-dependent protein deacetylase sirtuin-2 (Homo sapiens). Kind of assay: Induction of human Sirt2 stabilization (56 to 356 residues) expressed in Escherichia coli BL21 (DE3) assessed as change in melting temperature at 25 uM in presence of NAD+ by differential scanning fluorimetry analysis. In general terms: In DSF a fluorescence change marks the thermal transition of the protein.

Assay [5] has as its target T1, NAD-dependent protein deacetylase sirtuin-2. Kind of assay: Inhibition of recombinant human C-terminal His-tagged Sirt2 (50 to 356 residues) expressed in Escherichia coli using QPKKac as substrate.
The target is the same in assay [6]. Kind of assay: Inhibition of recombinant human C-terminal His-tagged Sirt2 (50 to 356 residues) expressed in Escherichia coli using r ETDKmyr as substrate.
A short description of assay [7]: Inhibition of schistosoma mansoni Sirt2 (21 to 322 residues) deacetylation expressed in Escherichia coli BL21 (DE3) using ZMAL as substrate incubated for 1 hr in presence of NAD+ by fluorescence based microplate reader assay.

Broadly, the IC50 is the point on the concentration scale where inhibition reaches its midpoint.

The source made the active and inactive calls. The calls are words filed in the database; no cut-off is given here.

Description for PC-3M-luc: Inhibition of cell migration in human PC-3M-luc cells at 10 to 20 uM incubated for 3 days

Regarding `Cc1c(F)cccc1CN1CCCC(Cc2nc(-c3ccc(NC(=O)c4ccc(Cl)s4)cc3)no2)C1` (stereo unspecified), the half-maximal inhibitory concentration (IC50) in assay [1] was 0.67 µM.
For `Cc1cc(C)nc(SCC(=O)Nc2ncc(Cc3cccc(OCc4cn(Cc5ccc(OCCN6CCOCC6)cc5)nn4)c3)s2)n1`, in [2], the IC50 is 2.4 µM. Besides, the inhibition entry (in assay [3]; with PC-3M-luc) was “Active” in each case.
As to `COc1ccc(NC(=O)Nc2ccc(-c3noc(CC4CCCN(Cc5cccc(F)c5C)C4)n3)cc2)cc1` (stereo unspecified), the IC50 came out at 25 µM in assay [2] and 0.62 µM in assay [1].
Regarding `COc1ccc(CC(=O)Nc2ccc(-c3noc(CC4CCCN(Cc5cccc(F)c5C)C4)n3)cc2)cc1` (stereo unspecified), the IC50 in assay [2] came to 27.7 µM; in assay [1], 1.1 µM.
With `Cc1c(F)cccc1CN1CCCC(Cc2nc(-c3ccc(N)cc3)no2)C1` (stereo unspecified), the IC50 in [2] amounted to 22.2 µM; in assay [1], 17.8 µM. For the same compound, the inhibition result (in [3]; in the assay with PC-3M-luc) was “inactive” in each case. Also, the result (with HeLa; in assay [4]) was inactive.
Turning to `Cc1c(F)cccc1CN1CCCC(Cc2nc(-c3ccc(NC(=O)NCc4ccccc4)cc3)no2)C1` (stereo unspecified), the 50% inhibitory concentration (IC50) in assay [2] is 10.2 µM; in [1] it was 1.07 µM.
In the same order, the values of `COc1cccc(C(=O)Nc2ccc(-c3noc(CC4CCCN(Cc5cccc(F)c5C)C4)n3)cc2)c1` (stereo unspecified) are 22.3 µM and 0.88 µM.
In the same order, the values of `Cc1c(F)cccc1CN1CCCC(Cc2nc(-c3ccc(NC(=S)Nc4ccccc4)cc3)no2)C1` (stereo unspecified) are 6.2 µM and 0.9 µM.
Turning to `Cc1c(F)cccc1CN1CCCC(Cc2nc(-c3ccc(NC(=O)Nc4ccccc4)cc3)no2)C1` (stereo unspecified), the IC50 in assay [2] worked out at 20.1 µM; in assay [1] it was 0.21 µM.
In the case of `CCCCCCCCCCCCNC(=S)NCCCC[C@H](NS(C)(=O)=O)C(=O)N[C@@H](C)C(=O)N[C@@H](CCCNC(=N)N)C(N)=O`, the 50% inhibitory concentration (IC50) was 0.04 µM in assay [5] and 0.17 µM in [6].
As for `Cc1c(F)cccc1CN1CCCC(Cc2nc(-c3ccc(NC(=S)NCc4ccccc4)cc3)no2)C1` (stereo unspecified), the figures for the IC50 in [2] and in [1] were 6.65 µM and 0.64 µM, respectively. Moreover, the inhibition entry in assay [3] is “Active”.
For the compound `COc1ccc(C(=O)Nc2ccc(-c3noc(CC4CCCN(Cc5cccc(F)c5C)C4)n3)cc2)cc1` (stereo unspecified), the IC50 was 12.6 µM in assay [2] and 0.43 µM in assay [1].
With `CC(=O)Nc1ccc(-c2noc(CC3CCCN(Cc4cccc(F)c4C)C3)n2)cc1` (stereo unspecified), the IC50 in assay [2] is 11 µM; in assay [7] it was 14 µM.
